Here are results for two molecules from patent US10537567B2, “Kinase inhibitors for treatment of disease” (BioAxone BioSciences, Inc., priority 2017, dated 2020).

Structures are written as SMILES. “Also recorded” adds a separate entry of the source.

Data set [1] can be described thus: Penetration and distribution in ocular tissues after topical instillation (LC-MS). The format is in vivo, Sprague Dawley rats. To be noted: topical 5% solution of BA-1076, 20 minutes. The procedure:
Adult Sprague Dawley rats (Charles River Laboratories) were used for this experiment. […] One g of tissue was homogenized in 1 mL of 1×PBS. Homogenates were precipitated by pipetting 200 μL of homogenate into a tube using aseptically cut off 1000 μL pipette tips to prevent clogging. Samples are further diluted with 100 μL PBS to aid in precipitation. 900 μL of cold methanol was added to each sample and samples were vortexed for 5 to 10 seconds. Samples were placed at 4° C. for 30 to 40 min and then centrifuged at 10,000 g for 15 min at 4° C. The supernatant is collected and stored at −80° C. until analyzed.
For the optic nerve sample, the concentration is shown per length of optic nerve (right y-axis). […] Therefore, drug is available in the retina and optic nerve for treating these tissues affected in glaucoma and other retinal diseases.
In FIG. 14 we examined the ability of metabolite to penetrate the ocular tissues of the eye after topical instillation of a 3% solution of metabolite. In comparison with FIG. 13, that also the metabolite has adequate penetration into ocular and CNS tissue. Of particular note is the penetration in the retina and presence in the optic nerve. All compounds were given topically as eye drops to the eye of adult Sprague Dawley rats. Twenty minutes later the indicated tissues were removed and the parent compound and active metabolite were analyzed by LC/MS.

For data set [2], the target named is T1, ROCK1 (Homo sapiens, UniProt Q13464). In words: Direct filter-binding radiometric kinase assay (Eurofins) at Km ATP. The format is biochemical. Also noted: purchased Eurofins Testing (Dundee, Scotland, UK). The procedure:
(§1) ROCK1 and ROCK2 IC50 determinations were made using ATP concentrations at the Km ATP of 70 μM and 15 μM for ROCK1 and ROCK2, respectively.
(§2) For the data shown in Table 4, IC50 inhibition curves were performed at the respective Km for ATP for both ROCK1 and ROCK2. Performing these assays at the Km of ATP gives a better representation of the inhibitory activity. Other comparisons where differing kinases are tested at a single ATP concentration can potentially misrepresent the comparative efficacy since enzyme inhibitory activity tested below the Km for ATP of the enzyme, produces a circumstance where the enzyme is actually not constantly bound with ATP and the reaction velocity becomes sub-optimal.

The target in data set [3] is T2, ROCK2 (Homo sapiens, UniProt O75116). The description is as above. As to conditions: for ROCK1/ROCK2 (fold difference): IC50 at respective Km ATP. Also noted: purchased Eurofins Testing (Dundee, Scotland, UK). The format is biochemical. On the procedure: as §1, §2
The next data set concerns the target 468-target kinome screen. In words: DiscoverX kinome screen, off-target hits. The data set is classed as binding, human. To be noted: 10,000 nM API. On the procedure: (§3) A 468-target kinome screen and a safety screen were carried out to examine the off-target profiles of different kinase inhibitors (DiscoverX, Freemont, Calif.). The kinome screen is a binding assay where API interference of kinase domain/substrate binding is assessed as percent of control. Less than 10% binding (or >90% binding inhibition) is most biologically relevant and considered as a ‘hit’. BA-2017 only had 7 off-target hits compared to BA-1049 and Netarsudil, which both had 11 hits (Table 1) (Studirvant et al. 2016 Bioorg Med Chem Lett. 26(10):2475-2480). […] Published data for Netarsudil were with 200 times less API. […] The NET activity likely helps to decrease IOP but might increase hyperemia, while the SERT activity might have long-term safety consequences (Costagliola et al. 2004 CNS drugs 18(8): p. 475-484).
In the kinome screen BA-2017 had fewer off-target hits (Table 1) than BA-1049. […] An interesting hit from the kinome screen was on Abl (Table 1), an oncogene that also regulates many cellular activities, including vascular leakage.

For data set [4], the target named is T3, norepinephrine transporter (NET) (Homo sapiens, UniProt P23975).
T3 construct: purchased DiscoverX
In words: Safety screen. The format is biochemical. As to conditions: 10,000 nM API. The procedure:
as §3
(§4) These targets include GPCRs, transporters, ion channels, nuclear receptors, non-kinase enzymes.

For data set [5], the target named is T4, serotonin transporter (SERT) (Homo sapiens, UniProt P31645).
T4 construct: purchased DiscoverX
In words: Safety screen. To be noted: 10,000 nM API. The data set is classed as biochemical. On the procedure: as §3, §4

In data set [6] the target is T2, ROCK2. In words: IC50 determined at 10 μM ATP. The format is biochemical. Details: purchased Eurofins Testing (Dundee, Scotland, UK). From the text:
The data in Table 2 were obtained at ATP concentration below those corresponding to Km.

The target of a further data set is PKA (Homo sapiens, UniProt P17612). In words: Single dose inhibition assay of key AGC class kinases. The data set is classed as biochemical. To be noted: 10 μM API. The procedure:
Molecular modeling and rational drug design were used to create and screen over 50 ROCK inhibitors. These ROCK inhibitors were screened for selectivity for ROCK2 and ability to promote neurite outgrowth. Several lead inhibitors came out of this screen and further screened for inhibition of key AGC class kinases by a single dose inhibition assay performed with 10 μM active pharmaceutical ingredient (API). The lead compound is chiral. […] They have different selectivity for ROCK2 (Table 2) and different off-target profiles (Table 1; FIG. 1).

In data set [7] the target is T1, ROCK1. In words: IC50 determined at 10 μM ATP. The format is biochemical. Details: purchased Eurofins Testing (Dundee, Scotland, UK). To be noted: 10 μM ATP (below Km).
Data set [8] can be described thus: Hyperemia / ocular tolerability testing in Dutch-Belted rabbits. The format is in vivo, Dutch-Belted rabbits (Oryctolagus cuniculus). An excerpt:
To test for hyperemia, the rabbit is a standard species used in ocular tolerability studies based upon historical data and FDA requirements. For this study, four (4) Dutch-Belted rabbits (Oryctolagus cuniculus) were manually restrained to facilitate topical dosing followed by ocular examinations, and IOP measurements. Prior to placement on study, each animal underwent an ophthalmic examination (slit-lamp biomicroscopy, indirect ophthalmoscopy). Ocular findings were scored according to a modified McDonald-Shadduck Scoring System. […] Test and control articles were dosed in the morning at approximately the same time every day (˜8 am±2 hours). Animals were observed within their cages once daily throughout the study period. […] Any abnormal observation was reported to the Study Director. Ocular findings were scored according to a modified McDonald-Shadduck Scoring System. The scoring system 0=normal and numbers of 1-4 score mild to severe.
(Table 3). Thus, these ROCK inhibitors have promise for therapeutic use in treating eye pathologies.

[9] abbreviates: Day 3, 1% topical once daily, modified McDonald-Shadduck score, 0=normal, 1-4 mild to severe, cells = rabbit 1/2, OD/OS.

T2 sequence (O75116 whole entry, the tested form may be a part): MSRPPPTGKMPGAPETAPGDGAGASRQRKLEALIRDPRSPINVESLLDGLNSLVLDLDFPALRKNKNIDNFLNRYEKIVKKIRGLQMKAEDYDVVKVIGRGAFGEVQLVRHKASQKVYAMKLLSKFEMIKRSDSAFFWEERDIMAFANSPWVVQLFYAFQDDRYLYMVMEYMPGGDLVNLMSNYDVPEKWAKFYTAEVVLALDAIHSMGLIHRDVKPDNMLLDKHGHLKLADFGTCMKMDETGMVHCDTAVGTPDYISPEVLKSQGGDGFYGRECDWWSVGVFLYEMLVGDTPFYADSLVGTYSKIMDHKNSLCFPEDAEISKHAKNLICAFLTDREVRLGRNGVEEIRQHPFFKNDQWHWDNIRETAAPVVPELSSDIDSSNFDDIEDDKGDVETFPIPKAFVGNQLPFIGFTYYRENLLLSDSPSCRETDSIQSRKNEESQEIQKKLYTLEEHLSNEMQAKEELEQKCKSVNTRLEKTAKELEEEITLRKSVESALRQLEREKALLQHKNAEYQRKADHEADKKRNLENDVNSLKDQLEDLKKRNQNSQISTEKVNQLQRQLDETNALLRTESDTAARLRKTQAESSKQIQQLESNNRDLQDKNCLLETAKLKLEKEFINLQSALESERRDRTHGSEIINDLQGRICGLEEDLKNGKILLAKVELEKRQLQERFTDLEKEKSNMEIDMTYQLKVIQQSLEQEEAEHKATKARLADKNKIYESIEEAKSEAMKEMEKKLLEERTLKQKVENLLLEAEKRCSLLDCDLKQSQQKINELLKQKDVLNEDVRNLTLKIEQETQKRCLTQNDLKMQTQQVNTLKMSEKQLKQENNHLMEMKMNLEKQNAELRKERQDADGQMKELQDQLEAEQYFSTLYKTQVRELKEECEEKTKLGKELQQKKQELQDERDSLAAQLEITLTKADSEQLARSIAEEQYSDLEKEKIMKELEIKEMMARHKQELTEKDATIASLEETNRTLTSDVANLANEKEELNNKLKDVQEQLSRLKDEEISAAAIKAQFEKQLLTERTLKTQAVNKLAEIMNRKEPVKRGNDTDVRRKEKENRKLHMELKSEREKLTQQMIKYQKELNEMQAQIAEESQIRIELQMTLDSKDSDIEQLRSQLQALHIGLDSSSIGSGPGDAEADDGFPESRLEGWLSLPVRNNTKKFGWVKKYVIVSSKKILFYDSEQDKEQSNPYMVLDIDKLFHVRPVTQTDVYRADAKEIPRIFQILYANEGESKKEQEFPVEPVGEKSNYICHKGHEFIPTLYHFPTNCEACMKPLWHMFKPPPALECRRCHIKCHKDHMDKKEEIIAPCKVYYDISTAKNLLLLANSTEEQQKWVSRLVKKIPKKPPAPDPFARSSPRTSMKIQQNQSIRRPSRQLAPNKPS
T1 sequence (Q13464 whole entry): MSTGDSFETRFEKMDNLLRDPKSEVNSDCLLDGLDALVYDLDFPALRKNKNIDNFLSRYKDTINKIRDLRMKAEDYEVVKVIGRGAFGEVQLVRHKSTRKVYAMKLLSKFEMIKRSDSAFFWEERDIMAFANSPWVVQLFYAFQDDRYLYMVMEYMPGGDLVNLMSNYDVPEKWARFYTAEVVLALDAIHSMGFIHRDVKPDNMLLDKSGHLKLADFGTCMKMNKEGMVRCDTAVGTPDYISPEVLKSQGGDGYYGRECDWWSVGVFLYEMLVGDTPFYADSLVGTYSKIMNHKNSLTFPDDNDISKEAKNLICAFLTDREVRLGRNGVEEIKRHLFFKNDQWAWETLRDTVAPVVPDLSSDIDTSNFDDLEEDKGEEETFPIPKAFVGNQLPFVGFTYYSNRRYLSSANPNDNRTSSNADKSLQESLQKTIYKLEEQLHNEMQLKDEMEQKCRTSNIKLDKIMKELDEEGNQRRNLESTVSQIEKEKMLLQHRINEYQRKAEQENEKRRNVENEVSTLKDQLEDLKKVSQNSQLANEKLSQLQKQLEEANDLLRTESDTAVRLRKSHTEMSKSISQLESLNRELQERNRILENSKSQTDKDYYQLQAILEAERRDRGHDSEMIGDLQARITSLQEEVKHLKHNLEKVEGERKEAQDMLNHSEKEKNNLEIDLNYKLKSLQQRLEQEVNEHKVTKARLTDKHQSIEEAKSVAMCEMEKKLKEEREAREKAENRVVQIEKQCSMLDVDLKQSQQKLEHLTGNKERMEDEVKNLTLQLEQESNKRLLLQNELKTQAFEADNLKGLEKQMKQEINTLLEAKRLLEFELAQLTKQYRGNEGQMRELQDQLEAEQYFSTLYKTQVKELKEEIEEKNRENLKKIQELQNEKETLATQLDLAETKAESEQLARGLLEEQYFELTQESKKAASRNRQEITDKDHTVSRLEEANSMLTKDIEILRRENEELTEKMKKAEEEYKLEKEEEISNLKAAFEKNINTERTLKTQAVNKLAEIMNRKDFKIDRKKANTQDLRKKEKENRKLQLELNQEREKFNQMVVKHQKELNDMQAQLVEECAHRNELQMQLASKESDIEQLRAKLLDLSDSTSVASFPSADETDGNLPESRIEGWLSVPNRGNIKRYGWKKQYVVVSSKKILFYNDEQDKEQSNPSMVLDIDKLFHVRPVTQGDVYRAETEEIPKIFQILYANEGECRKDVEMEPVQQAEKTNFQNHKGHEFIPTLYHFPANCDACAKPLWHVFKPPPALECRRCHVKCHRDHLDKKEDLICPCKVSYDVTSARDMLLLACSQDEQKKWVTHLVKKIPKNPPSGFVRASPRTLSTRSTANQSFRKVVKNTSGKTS
T3 sequence (P23975 whole entry): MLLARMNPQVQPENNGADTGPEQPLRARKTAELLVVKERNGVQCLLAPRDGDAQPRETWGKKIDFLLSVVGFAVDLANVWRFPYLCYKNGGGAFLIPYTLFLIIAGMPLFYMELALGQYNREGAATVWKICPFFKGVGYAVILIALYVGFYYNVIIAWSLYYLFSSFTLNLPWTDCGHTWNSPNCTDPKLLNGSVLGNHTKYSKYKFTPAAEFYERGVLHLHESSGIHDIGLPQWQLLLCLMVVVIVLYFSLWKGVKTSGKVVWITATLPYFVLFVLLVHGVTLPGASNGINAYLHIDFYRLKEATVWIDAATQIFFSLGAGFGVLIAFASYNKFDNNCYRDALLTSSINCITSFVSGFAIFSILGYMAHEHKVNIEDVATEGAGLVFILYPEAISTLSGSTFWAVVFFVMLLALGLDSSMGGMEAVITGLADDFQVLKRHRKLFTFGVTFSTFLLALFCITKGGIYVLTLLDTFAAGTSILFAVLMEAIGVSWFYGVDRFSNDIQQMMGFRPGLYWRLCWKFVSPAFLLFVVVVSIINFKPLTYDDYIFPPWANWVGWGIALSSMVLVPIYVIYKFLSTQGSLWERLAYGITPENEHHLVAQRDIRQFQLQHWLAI
T4 sequence (P31645 whole entry): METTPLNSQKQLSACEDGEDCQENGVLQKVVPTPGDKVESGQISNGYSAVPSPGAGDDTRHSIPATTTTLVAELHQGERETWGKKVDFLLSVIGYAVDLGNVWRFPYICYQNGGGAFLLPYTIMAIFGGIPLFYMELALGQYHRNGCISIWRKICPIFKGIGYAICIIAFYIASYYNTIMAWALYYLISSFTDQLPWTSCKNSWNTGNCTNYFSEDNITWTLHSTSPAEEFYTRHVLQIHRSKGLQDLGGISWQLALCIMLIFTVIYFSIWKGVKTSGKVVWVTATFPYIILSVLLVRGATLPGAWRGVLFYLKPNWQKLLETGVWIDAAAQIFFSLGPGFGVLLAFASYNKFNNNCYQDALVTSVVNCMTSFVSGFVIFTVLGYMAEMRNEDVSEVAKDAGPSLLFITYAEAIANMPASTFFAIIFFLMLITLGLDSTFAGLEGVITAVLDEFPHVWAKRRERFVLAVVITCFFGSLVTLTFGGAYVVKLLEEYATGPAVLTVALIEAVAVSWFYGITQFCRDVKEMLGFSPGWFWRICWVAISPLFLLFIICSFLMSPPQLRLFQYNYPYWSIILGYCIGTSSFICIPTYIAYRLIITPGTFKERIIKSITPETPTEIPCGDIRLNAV

For `C[C@H](N)C1CCN(S(=O)(=O)c2cccc3c(=O)[nH]ccc23)CC1` [BA-2057], in data set [1], the “Penetration into ocular tissues” value was “penetrate the tissue of the eye, including the CNS tissue of the retina; also recorded: the metabolite is better able to penetrate the optic nerve”. The molecule also registered an IC50 at ROCK1 [2] of 23.6 µM. Further, on ROCK2 [3], the IC50 was determined as 0.491 µM and the “ROCK1/ROCK2 (fold difference)” value stood at 48.0. Also, on 468-target kinome screen, the “Kinome Screen Other (other off-target kinase)” value is given as “none”. Further, the “Safety Screen % inhibition NET” value in [4] is recorded as “none”. In [5], the “Safety Screen % inhibition SERT” value is listed as “none”.

In turn, `C[C@H](N)C1CCN(S(=O)(=O)c2cccc3cnccc23)CC1` [BA-1076] gave an IC50 at ROCK2 [6] (10 μM ATP (below Km), * = preliminary) of 0.73 µM. Further, the Fold-difference on ROCK2 [6] (ROCK1 vs ROCK2 IC50 at 10 μM ATP) is 14. In addition, the “Inhibition of PKA” value at PKA was “Neither compound inhibited PKA”. In data set [1], the “Penetration into ocular tissues” value is “penetrate the tissue of the eye, including the CNS tissue of the retina”. At ROCK1 [7], this molecule came in with an IC50 of 10 µM. Besides, in data set [8] (setting [9]), the “Aqueous Flare” value was found to be 0, the “Cellular Flare” value is listed as 0, the “Conjunctival Congestion” value came out at 0 and the “Conjunctival Discharge” value is recorded as 0. In addition, in data set [8] (setting [9]), the “Conjunctival Swelling” value was 0, the Cornea was determined as 0, the “Iris Involvement” value turned out to be 0 and the Pannus stood at 0. In data set [8] (setting [9]), the “Pupillary Response” value worked out at 0 and the “Surface Area of Cornea Involvement” value is recorded as 0. In data set [8] (daily repeat topical dosing, 1%, three days), the “Hyperemia / adverse ocular findings” value is given as “did not cause hyperemia”. The molecule further registered an IC50 on ROCK1 [2] (ATP at Km, 70 μM, * = higher purity BA-1076) of 19.6 µM. In addition, on ROCK2 [3], the “ROCK1/ROCK2 (fold difference)” value turned out to be 55.5. In addition, the “ROCK1/ROCK2 (fold difference)” value on ROCK2 [3] (listed as BA-1076*) worked out at 60.8. The “Kinome Screen Other (other off-target kinase)” value on 468-target kinome screen is given as “(ABL)”. In addition, the “# Hits <10% binding” value in the data set on 468-target kinome screen (hit = less than 10% binding (>90% binding inhibition)) stood at 7. Moreover, the “Safety Screen % inhibition NET” value in data set [4] was “none”. Moreover, the “Safety Screen % inhibition SERT” value in data set [5] is listed as “none”.
